Measurements from patent publication US5786324A, “Synthetic peptides with bactericidal activity and endotoxin neutralizing activity for gram negative bacteria and methods for their use” (priority 1994, dated 1998).
Like-named read-outs stand apart in the source and are kept apart here. Positions of bridges follow the written chain, without caps; N, C: chain ends. Residues, ends and D or L forms follow the SMILES beside them. No end group written: not given here.

Columns and labels:
[1] = tested on: Pseudomonas aeruginosa type 1; format: cell-based; conditions: pH 5.6; for Effective Dose Bactericidal pH 5.6 P. aeruginosa Molar Concentration: Table 5
Procedure: Bactericidal activity can be evaluated against a variety of bacteria such as Pseudomonas spp including aeruginosa and P. cepacia, E. coli B, and Staphylococcus aureus. The preferred organism is P. aeruginosa. Bactericidal activity is determined by identifying the effective dose for killing as the molar concentration of the peptide which results in at least a 60% killing of the bacteria, as determined by standard methods. Preferably, the peptide has an effective dose at a concentration of about 1×10^-4 M to about 1×10^-10 M, and more preferably 1×10^-7 M to 1×10^-9M . […] The effective dose for bactericidal activity of B/PI is seen at about […] . Bactericidal activity can also be determined by calculating a lethal dose 50 (LD50) using standard methods. The LD50 is that amount of peptide or protein that kills 50% of the bacteria when measured using standard dose response methods. A bactericidal peptide preferably has an LD50 of about 10^-4 M to about 10^-9 M , more preferably about 10^-7 to 10^-9 M .
The synthetically produced peptides were assayed for bactericidal activity against Pseudomonas aeruginosa, type 1, P. cepacia ATCC 25608, E. coli B, and Staphylococcus aureus 502A by standard methods.
Pseudomonas aeruginosa type 1 is a clinical isolate maintained in the laboratory since 1972. The isolate remains a smooth strain and was serotyped by the scheme of Homma. Homma, Jpn. J. Exp. Med., 46:329 (1976). A rough strain E. coli B and S. aureus 502A were obtained from Paul Quie, University of Minnesota. The characteristics of the S. aureus strain have been described in Shinefield et al., Amer. J. Dis. Chil., 105:646 (1963). Pseudomonas cepacia ATCC 25608 was purchased from the American Type Culture Collection in 1980. S. aureus and E. coli were maintained on nutrient agar plates and the Pseudomonas strains were maintained on blood agar plates.
Pyrogen-free solutions were used throughout this assay and all methods which follow. Log phase bacteria were prepared from a culture in brain heart infusion broth as previously described except that bacteria were washed and resuspended in saline with adjustment to an optical density at 650 nm which would yield 3×10^8 CFU/ml. Bacteria were then diluted 1:10 in 0.08M citrate phosphate buffer, pH 5.6 or pH 7.0, for use in the assay. S. aureus rapidly lost viability in the pH 5.6 buffer and was studied only at pH 7.0. Bactericidal activity was determined by dose response and where an LD50 is indicated, it was determined by linear regression.

E. coli 055: B5 LPS = test: Limulus amoebocyte lysate assay, neutralization of endotoxin; format: biochemical; conditions: Table 8; LAL
From the text: The peptide selected can also have endotoxin neutralizing activity. […] Endotoxin neutralizing activity can also be measured by calculating an inhibitory dose 50 […] using standard does response methods. An inhibitory dose 50 is that amount of peptide that can inhibit 50% of the activity of endotoxin. Endotoxin activity can also be measured by determining the amount of release of tumor necrosis factor alpha (TNFα) from a macrophage cell line or by evaluating the symptoms of shock in animals. Peptides preferably neutralized endotoxin at a molar concentration of about 1×10^-4 M to about 10^-8 M , more preferably about 10^-5 M to about 10^-6 M .
The ability of synthetic peptides to neutralize endotoxin was detected with the E-TOXATE kit manufactured by Sigma Chemicals, St. Louis, Mo. […] Peptide was incubated with LPS at room temperature for 10 minutes in 100 μl of a 1:2 dilution of pyrogen-free saline, pH 6.4. The reaction was started by addition of 100 μl of amoebocyte lysate and the final volume was 200 μl.
^a The dose of peptide required to inhibit clotting of LAL by 100%.
Each tube contained 0.04 endotoxin units of E. coli LPS.

kkkffrlakq [Peptide 27]
% Killing of 5 × 10^6 Bacteria ([1]; P. aeruginosa, 3.0 × 10^-5 M): 49% | Effective Dose Bactericidal pH 5.6 P. aeruginosa Molar Concentration [1]: 3.0 × 10^-5 M | bacterial killing activity compared with parent peptide (in words) ([1]; P. aeruginosa): little or no effect | Effective Dose Endotoxin Neutralization (Molar Concentration) (E. coli 055: B5 LPS): -- (not active at concentrations of 4.5 × 10^-4 M or less)

kwkfkqralk [Peptide 26]
% Killing of 5 × 10^6 Bacteria ([1]; P. aeruginosa, 1.5 × 10^-5 M): 61% | Effective Dose Bactericidal pH 5.6 P. aeruginosa Molar Concentration [1]: 1.5 × 10^-5 M | Effective Dose Endotoxin Neutralization (Molar Concentration) (E. coli 055: B5 LPS): 300 µM

CC[C@H](C)[C@H](NC(=O)[C@@H](N)CCCCN)C(=O)N[C@@H](CO)C(=O)NCC(=O)N[C@@H](CCCCN)C(=O)N[C@@H](Cc1c[nH]c2ccccc12)C(=O)N[C@@H](CCCCN)C(=O)N[C@@H](C)C(=O)N[C@@H](CCC(N)=O)C(=O)N[C@@H](CCCCN)C(=O)N[C@@H](CCCNC(=N)N)C(=O)N[C@@H](Cc1ccccc1)C(=O)N[C@@H](CC(C)C)C(=O)N[C@@H](CCCCN)C(=O)O [Peptide 8a, kisgkwkaqkrflk]
% Killing of 5 × 10^6 Bacteria ([1]; type 1, 6.0e-6 M): 79%

wkkfkqralk [Peptide 19]
% Killing of 5 × 10^6 Bacteria ([1]; P. aeruginosa, 1.2 × 10^-4 M): 65% | Effective Dose Bactericidal pH 5.6 P. aeruginosa Molar Concentration [1]: 1.2 × 10^-4 M | bactericidal activity, fold reduced versus the 90-99 peptide ([1]; randomized sequence): 8 fold | Effective Dose Endotoxin Neutralization (Molar Concentration) (E. coli 055: B5 LPS): -- (not active at concentrations of 4.5 × 10^-4 M or less)

CC(C)C[C@@H]1NC(=O)[C@H](Cc2ccccc2)NC(=O)[C@H](CCCCN)NC(=O)[C@@H](NC(=O)[C@H](CCCCN)NC(=O)[C@@H](NC(=O)[C@@H](N)CCCCN)[C@@H](C)O)CSSC[C@@H](C(=O)O)NC(=O)[C@H](CCCCN)NC(=O)[C@H](CCCCN)NC1=O [cyclic 25, reference compound] (H-KTKCKFLKKC-OH; disulfide 4-10)
% Killing of 5 × 10^6 Bacteria ([1]; type 1, 1.5e-5 M): 73%

CSCC[C@H](NC(=O)[C@H](CCCCN)NC(=O)[C@H](CC(C)C)NC(=O)[C@H](Cc1ccccc1)NC(=O)[C@H](CCCNC(=N)N)NC(=O)[C@H](CCCCN)NC(=O)[C@H](CCC(N)=O)NC(=O)[C@H](C)NC(=O)[C@H](CCCCN)NC(=O)[C@H](Cc1c[nH]c2ccccc12)NC(=O)[C@@H](N)CCCCN)C(=O)N[C@@H](CO)C(=O)NCC(=O)O [Peptide 9a, kwkaqkrflkmsg]
% Killing of 5 × 10^6 Bacteria ([1]; type 1, 6.0e-6 M): 67%

iktkkflkkt [Peptide 24, reference compound]
% Killing of 5 × 10^6 Bacteria ([1]; P. aeruginosa, 3.0 × 10^-5 M): 72% | Effective Dose Bactericidal pH 5.6 P. aeruginosa Molar Concentration [1]: 3.0 × 10^-5 M | Effective Dose Endotoxin Neutralization (Molar Concentration) (E. coli 055: B5 LPS): -- (not active at concentrations of 4.5 × 10^-4 M or less)

sdsflkikhlgkghysfysmdirefq [Peptide 12]
% Killing of 5 × 10^6 Bacteria ([1]; P. aeruginosa, 1.5 × 10^-5 M): 58% | Effective Dose Bactericidal pH 5.6 P. aeruginosa Molar Concentration [1]: 1.5 × 10^-5 M | Effective Dose Endotoxin Neutralization (Molar Concentration) (E. coli 055: B5 LPS): 75 µM

ckisgkwkaqkrflkmsgnfc [Peptide 36]
% Killing of 5 × 10^6 Bacteria ([1]; P. aeruginosa, 1.2 × 10^-4 M): 39% | Effective Dose Bactericidal pH 5.6 P. aeruginosa Molar Concentration [1]: 1.2 × 10^-4 M | Effective Dose Endotoxin Neutralization (Molar Concentration) (E. coli 055: B5 LPS): 750 µM

CC[C@H](C)[C@@H]1NC(=O)[C@H](CCCCN)NC(=O)[C@@H](N)CSSC[C@@H](C(=O)O)NC(=O)[C@H](Cc2ccccc2)NC(=O)[C@H](CC(N)=O)NC(=O)CNC(=O)[C@H](CO)NC(=O)[C@H](CCSC)NC(=O)[C@H](CCCCN)NC(=O)[C@H](CC(C)C)NC(=O)[C@H](Cc2ccccc2)NC(=O)[C@H](CCCNC(=N)N)NC(=O)[C@H](CCCCN)NC(=O)[C@H](CCC(N)=O)NC(=O)[C@H](C)NC(=O)[C@H](CCCCN)NC(=O)[C@H](Cc2c[nH]c3ccccc23)NC(=O)[C@H](CCCCN)NC(=O)CNC(=O)[C@H](CO)NC1=O [cyclic 36] (H-CKISGKWKAQKRFLKMSGNFC-OH; disulfide 1-21)
% Killing of 5 × 10^6 Bacteria ([1]; type 1, 1.5e-7 M): 76%

kkkafrlakq [Peptide 28]
% Killing of 5 × 10^6 Bacteria ([1]; P. aeruginosa, 3.0 × 10^-5 M): 68% | Effective Dose Bactericidal pH 5.6 P. aeruginosa Molar Concentration [1]: 3.0 × 10^-5 M | bacterial killing activity compared with parent peptide (in words) ([1]; P. aeruginosa): little or no effect | Effective Dose Endotoxin Neutralization (Molar Concentration) (E. coli 055: B5 LPS): -- (not active at concentrations of 4.5 × 10^-4 M or less)

ckwkaqkrflkc (CKWKAQKRFLKC; not fully specified (bridges); also: cyclic, kind and places of ring not given here) [Peptide 20a]
% Killing of 5 × 10^6 Bacteria ([1]; P. aeruginosa, 3.0 × 10^-6 M): 76% | Effective Dose Bactericidal pH 5.6 P. aeruginosa Molar Concentration [1]: 3.0 × 10^-6 M | Effective Dose Endotoxin Neutralization (Molar Concentration) (E. coli 055: B5 LPS): -- (not active at concentrations of 4.5 × 10^-4 M or less)

isnanikisg [Peptide 30]
Effective Dose Bactericidal pH 5.6 P. aeruginosa Molar Concentration [1]: -- (not active at concentrations of 1.2 × 10^-4 M or less) | Effective Dose Endotoxin Neutralization (Molar Concentration) (E. coli 055: B5 LPS): 450 µM

CC[C@H](C)[C@H](NC(=O)[C@H](CCCCN)NC(=O)[C@@H](N)CSSC[C@H](N)C(=O)N[C@@H](CCCCN)C(=O)N[C@H](C(=O)N[C@@H](CO)C(=O)NCC(=O)N[C@@H](CCCCN)C(=O)N[C@@H](Cc1c[nH]c2ccccc12)C(=O)N[C@@H](CCCCN)C(=O)N[C@@H](C)C(=O)N[C@@H](CCC(N)=O)C(=O)N[C@@H](CCCCN)C(=O)N[C@@H](CCCNC(=N)N)C(=O)N[C@@H](Cc1ccccc1)C(=O)N[C@@H](CC(C)C)C(=O)N[C@@H](CCCCN)C(=O)O)[C@@H](C)CC)C(=O)N[C@@H](CO)C(=O)NCC(=O)N[C@@H](CCCCN)C(=O)N[C@@H](Cc1c[nH]c2ccccc12)C(=O)N[C@@H](CCCCN)C(=O)N[C@@H](C)C(=O)N[C@@H](CCC(N)=O)C(=O)N[C@@H](CCCCN)C(=O)N[C@@H](CCCNC(=N)N)C(=O)N[C@@H](Cc1ccccc1)C(=O)N[C@@H](CC(C)C)C(=O)N[C@@H](CCCCN)C(=O)O [dimer 8b]
% Killing of 5 × 10^6 Bacteria ([1]; type 1, 1.5e-6 M): 52%

CC[C@H](C)[C@H](NC(=O)[C@H](CCCCN)NC(=O)[C@@H](N)CS)C(=O)N[C@@H](CO)C(=O)NCC(=O)N[C@@H](CCCCN)C(=O)N[C@@H](Cc1c[nH]c2ccccc12)C(=O)N[C@@H](CCCCN)C(=O)N[C@@H](C)C(=O)N[C@@H](CCC(N)=O)C(=O)N[C@@H](CCCCN)C(=O)N[C@@H](CCCNC(=N)N)C(=O)N[C@@H](Cc1ccccc1)C(=O)N[C@@H](CC(C)C)C(=O)N[C@@H](CCCCN)C(=O)O [Peptide 8b, ckisgkwkaqkrflk]
% Killing of 5 × 10^6 Bacteria ([1]; type 1, 1.5e-6 M): 88%

CC(C)C[C@@H]1NC(=O)[C@H](Cc2ccccc2)NC(=O)[C@H](CCCNC(=N)N)NC(=O)[C@H](CCCCN)NC(=O)[C@H](CCC(N)=O)NC(=O)[C@H](C)NC(=O)[C@H](CCCCN)NC(=O)[C@H](Cc2c[nH]c3ccccc23)NC(=O)[C@H](CCCCN)NC(=O)[C@@H](N)CSSC[C@@H](C(=O)O)NC(=O)[C@H](CCCCN)NC1=O [cyclic 20a]
% Killing of 5 × 10^6 Bacteria ([1]; type 1, 3.0e-5 M): 89%

CSCC[C@H](NC(=O)[C@H](CCCCN)NC(=O)[C@H](CC(C)C)NC(=O)[C@H](Cc1ccccc1)NC(=O)[C@H](CCCNC(=N)N)NC(=O)[C@H](CCCCN)NC(=O)[C@H](CCC(N)=O)NC(=O)[C@H](C)NC(=O)[C@H](CCCCN)NC(=O)[C@H](Cc1c[nH]c2ccccc12)NC(=O)[C@H](CCCCN)NC(=O)[C@@H](N)CS)C(=O)N[C@@H](CO)C(=O)NCC(=O)O [Peptide 9b, ckwkaqkrflkmsg]
% Killing of 5 × 10^6 Bacteria ([1]; type 1, 1.5e-6 M): 96%
